Values joined by “and” are separate entries in the source; they are usually repeats but may differ in a detail not shown here. Equal entries are not always repeated.
Tested on: MDA-MB-231 complex spheroid viability
Test: Anticancer human tumor MDA-MB-231/ATCC cell line growth inhibition;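 note: drug exposure lasted 7 days starting on day 3 of spheroid growth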
Details: for viability, T/C: stronger effect = lower value
Procedure, shortened: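 Multicellular complex spheroids of tumor cells with human endothelial cells (HUVEC) and mesenchymal stem cells; the LSD1 inhibitor iadademstat was combined with standard-of-care or investigational agents. Top concentration at or near clinical Cmax, half-log dilutions; final DMSO ≤0.25%.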

[1] = curve of first compound, second compound 0.1 µM
[2] = curve of first compound, second compound 0.316 µM
[3] = curve of first compound, second compound 1 µM
[4] = curve of first compound, second compound 3.16 µM
[5] = curve of first compound, second compound 10 µM
[6] = second compound 0.1 µM, first compound 0.0316 µM
[7] = second compound 0.1 µM, first compound 0.1 µM
[8] = second compound 0.1 µM, first compound 0.316 µM
[9] = second compound 0.1 µM, first compound 1 µM
[10] = second compound 0.1 µM, first compound 3.16 µM
[11] = second compound 0.1 µM, first compound 10 µM
[12] = second compound 0.316 µM, first compound 0.0316 µM
[13] = second compound 0.316 µM, first compound 0.1 µM
[14] = second compound 0.316 µM, first compound 0.316 µM
[15] = second compound 0.316 µM, first compound 1 µM
[16] = second compound 0.316 µM, first compound 3.16 µM
[17] = second compound 0.316 µM, first compound 10 µM
[18] = second compound 1 µM, first compound 0.0316 µM
[19] = second compound 1 µM, first compound 0.1 µM
[20] = second compound 1 µM, first compound 0.316 µM
[21] = second compound 1 µM, first compound 1 µM
[22] = second compound 1 µM, first compound 3.16 µM
[23] = second compound 1 µM, first compound 10 µM
[24] = second compound 3.16 µM, first compound 0.0316 µM
[25] = second compound 3.16 µM, first compound 0.1 µM
[26] = second compound 3.16 µM, first compound 0.316 µM
[27] = second compound 3.16 µM, first compound 1 µM
[28] = second compound 3.16 µM, first compound 3.16 µM
[29] = second compound 3.16 µM, first compound 10 µM
[30] = second compound 10 µM, first compound 0.0316 µM
[31] = second compound 10 µM, first compound 0.1 µM
[32] = second compound 10 µM, first compound 0.316 µM
[33] = second compound 10 µM, first compound 1 µM
[34] = second compound 10 µM, first compound 3.16 µM
[35] = second compound 10 µM, first compound 10 µM

Question: `COc1ccc([C@@H](O)c2cc(-c3ncnc4cc(N5CCOCC5)ccc34)c(F)cc2Cl)nn1` + NC1CC1c1ccc(-c2cccc(O)c2)cc1 was tested. Which IC50 [1] did it give?
Answer: The IC50 was 361 nM.

Question: And the IC50 [2]?
Answer: The IC50 was 173 nM.

Question: What about the IC50 [3] of the same compound?
Answer: Its IC50 is 82.5 nM.

Question: What about the IC50 [4] of the same compound?
Answer: Its IC50 is 164 nM.

Question: And the IC50 [5]?
Answer: Its IC50 is under 31.6 nM.

Question: What about the viability, T/C [6] of the same compound?
Answer: The viability, T/C was 74.9%.

Question: What about the viability, T/C [7] of the same compound?
Answer: Its viability, T/C is 65.6%.

Question: What about the viability, T/C [8] of the same compound?
Answer: Its viability, T/C is 53%.

Question: What about the viability, T/C [9] of the same compound?
Answer: Its viability, T/C is 33.1%.

Question: And the viability, T/C [10]?
Answer: The viability, T/C was 17.1%.

Question: What about the viability, T/C [11] of the same compound?
Answer: The viability, T/C was 12.8%.

Question: What about the viability, T/C [12] of the same compound?
Answer: Its viability, T/C is 57.1%.

Question: What about the viability, T/C [13] of the same compound?
Answer: The viability, T/C was 58.5%.

Question: And the viability, T/C [14]?
Answer: Its viability, T/C is 42.3%.

Question: And the viability, T/C [15]?
Answer: Its viability, T/C is 28.9%.

Question: What about the viability, T/C [16] of the same compound?
Answer: Its viability, T/C is 18%.

Question: And the viability, T/C [17]?
Answer: Its viability, T/C is 13.1%.

Question: What about the viability, T/C [18] of the same compound?
Answer: The viability, T/C was 59.3%.

Question: And the viability, T/C [19]?
Answer: The viability, T/C was 48.3%.

Question: What about the viability, T/C [20] of the same compound?
Answer: Its viability, T/C is 36%.

Question: And the viability, T/C [21]?
Answer: Its viability, T/C is 27.4%.

Question: And the viability, T/C [22]?
Answer: Its viability, T/C is 16.2%.

Question: What about the viability, T/C [23] of the same compound?
Answer: The viability, T/C was 11%.

Question: And the viability, T/C [24]?
Answer: Its viability, T/C is 58.5%.

Question: And the viability, T/C [25]?
Answer: The viability, T/C was 54.2%.

Question: What about the viability, T/C [26] of the same compound?
Answer: The viability, T/C was 43.7%.

Question: What about the viability, T/C [27] of the same compound?
Answer: The viability, T/C was 29.1%.

Question: And the viability, T/C [28]?
Answer: Its viability, T/C is 14.8%.

Question: And the viability, T/C [29]?
Answer: The viability, T/C was 11.6%.

Question: What about the viability, T/C [30] of the same compound?
Answer: The viability, T/C was 44.8%.

Question: And the viability, T/C [31]?
Answer: Its viability, T/C is 43.7%.

Question: What about the viability, T/C [32] of the same compound?
Answer: The viability, T/C was 31.6%.

Question: And the viability, T/C [33]?
Answer: The viability, T/C was 20.2%.

Question: What about the viability, T/C [34] of the same compound?
Answer: The viability, T/C was 13.5%.

Question: What about the viability, T/C [35] of the same compound?
Answer: The viability, T/C was 10.2%.

Question: `CC(C)c1c(-c2ccccc2)nc2c(C#N)c[nH]n2c1=O` was tested. Which viability, T/C (compound 0.0316 µM) did it give?
Answer: The viability, T/C was 101% and 102%.

Question: And the viability, T/C (compound 0.1 µM)?
Answer: The viability, T/C was 94.7% and 104%.

Question: And the viability, T/C (compound 0.316 µM)?
Answer: Its viability, T/C is 97.9% and 117%.

Question: And the viability, T/C (compound 1 µM)?
Answer: Its viability, T/C is 106% and 112%.

Question: And the viability, T/C (compound 3.16 µM)?
Answer: The viability, T/C was 108% and 121%.

Question: And the viability, T/C (compound 10 µM)?
Answer: Its viability, T/C is 102% and 113%.

Question: What about the IC50 (curve of compound) of the same compound?
Answer: The IC50 was over 10000 nM.

Question: What does the source list for `Nc1ncn(C2CC(O)C(CO)S2)c(=O)n1` (configuration not stated) + NC1CCC(NC2CC2c2ccccc2)CC1?
Answer: IC50 [1]: 19.9 nM; IC50 [2]: 21.2 nM; IC50 [3]: 14.7 nM; IC50 [4]: 8.38 nM; IC50 [5]: 3.2 nM; viability, T/C (second compound 0.1 µM, first compound 0.000949 µM): 94.4%; viability, T/C (second compound 0.1 µM, first compound 0.003 µM): 78.2%; viability, T/C (second compound 0.1 µM, first compound 0.00949 µM): 63%; viability, T/C (second compound 0.1 µM, first compound 0.03 µM): 44.3%; viability, T/C (second compound 0.1 µM, first compound 0.0949 µM): 24.2%; viability, T/C (second compound 0.1 µM, first compound 0.3 µM): 12.3%; viability, T/C (second compound 0.316 µM, first compound 0.000949 µM): 93.2%; viability, T/C (second compound 0.316 µM, first compound 0.003 µM): 77.5%; viability, T/C (second compound 0.316 µM, first compound 0.00949 µM): 65.1%; viability, T/C (second compound 0.316 µM, first compound 0.03 µM): 46.4%; viability, T/C (second compound 0.316 µM, first compound 0.0949 µM): 21.9%; viability, T/C (second compound 0.316 µM, first compound 0.3 µM): 12%; viability, T/C (second compound 1 µM, first compound 0.000949 µM): 95.2%; viability, T/C (second compound 1 µM, first compound 0.003 µM): 77.8%; viability, T/C (second compound 1 µM, first compound 0.00949 µM): 58.5%; viability, T/C (second compound 1 µM, first compound 0.03 µM): 37.7%; viability, T/C (second compound 1 µM, first compound 0.0949 µM): 19.5%; viability, T/C (second compound 1 µM, first compound 0.3 µM): 11.2%; viability, T/C (second compound 3.16 µM, first compound 0.000949 µM): 77.2%; viability, T/C (second compound 3.16 µM, first compound 0.003 µM): 62.6%; viability, T/C (second compound 3.16 µM, first compound 0.00949 µM): 49.9%; viability, T/C (second compound 3.16 µM, first compound 0.03 µM): 32%; viability, T/C (second compound 3.16 µM, first compound 0.0949 µM): 17.9%; viability, T/C (second compound 3.16 µM, first compound 0.3 µM): 12%; viability, T/C (second compound 10 µM, first compound 0.000949 µM): 61.2%; viability, T/C (second compound 10 µM, first compound 0.003 µM): 50.1%; viability, T/C (second compound 10 µM, first compound 0.00949 µM): 37.6%; viability, T/C (second compound 10 µM, first compound 0.03 µM): 23.8%; viability, T/C (second compound 10 µM, first compound 0.0949 µM): 15.9%; viability, T/C (second compound 10 µM, first compound 0.3 µM): 12.6%

Question: How did the IC50 [1] turn out when `O=C(c1cc(Cc2n[nH]c(=O)c3ccccc23)ccc1F)N1CCN(C(=O)C2CC2)CC1` + NC1CC1c1ccc(-c2cccc(O)c2)cc1 was run?
Answer: The IC50 was 1730 nM.

Question: What about the IC50 [2] of the same compound?
Answer: The IC50 was 522 nM.

Question: And the IC50 [3]?
Answer: The IC50 was 378 nM.

Question: And the IC50 [4]?
Answer: The IC50 was 349 nM.

Question: And the IC50 [5]?
Answer: Its IC50 is under 31.6 nM.

Question: And the viability, T/C [6]?
Answer: The viability, T/C was 71.6%.

Question: And the viability, T/C [7]?
Answer: The viability, T/C was 64.2%.

Question: And the viability, T/C [8]?
Answer: The viability, T/C was 67%.

Question: What about the viability, T/C [9] of the same compound?
Answer: The viability, T/C was 56.1%.

Question: And the viability, T/C [10]?
Answer: The viability, T/C was 42.7%.

Question: What about the viability, T/C [11] of the same compound?
Answer: The viability, T/C was 27.1%.

Question: And the viability, T/C [12]?
Answer: The viability, T/C was 65.5%.

Question: And the viability, T/C [13]?
Answer: Its viability, T/C is 60.6%.

Question: What about the viability, T/C [14] of the same compound?
Answer: Its viability, T/C is 54.8%.

Question: And the viability, T/C [15]?
Answer: The viability, T/C was 44.5%.

Question: What about the viability, T/C [16] of the same compound?
Answer: Its viability, T/C is 32.3%.

Question: What about the viability, T/C [17] of the same compound?
Answer: The viability, T/C was 24.8%.

Question: And the viability, T/C [18]?
Answer: The viability, T/C was 59.6%.

Question: And the viability, T/C [19]?
Answer: Its viability, T/C is 56.9%.

Question: And the viability, T/C [20]?
Answer: The viability, T/C was 50.7%.

Question: And the viability, T/C [21]?
Answer: The viability, T/C was 44.3%.

Question: What about the viability, T/C [22] of the same compound?
Answer: Its viability, T/C is 32%.

Question: And the viability, T/C [23]?
Answer: The viability, T/C was 21.1%.

Question: What about the viability, T/C [24] of the same compound?
Answer: Its viability, T/C is 65.3%.

Question: What about the viability, T/C [25] of the same compound?
Answer: Its viability, T/C is 54.1%.

Question: What about the viability, T/C [26] of the same compound?
Answer: Its viability, T/C is 50.6%.

Question: What about the viability, T/C [27] of the same compound?
Answer: The viability, T/C was 45.1%.

Question: What about the viability, T/C [28] of the same compound?
Answer: Its viability, T/C is 33%.

Question: What about the viability, T/C [29] of the same compound?
Answer: Its viability, T/C is 22.2%.

Question: What about the viability, T/C [30] of the same compound?
Answer: Its viability, T/C is 45.4%.

Question: And the viability, T/C [31]?
Answer: Its viability, T/C is 38.2%.

Question: And the viability, T/C [32]?
Answer: The viability, T/C was 36.4%.

Question: What about the viability, T/C [33] of the same compound?
Answer: The viability, T/C was 37.2%.

Question: And the viability, T/C [34]?
Answer: The viability, T/C was 23.3%.

Question: What about the viability, T/C [35] of the same compound?
Answer: Its viability, T/C is 19.9%.
